According to patent US20180289008A1, “METHODS FOR WILDFIRE CONTROL, INVASIVE PLANT CONTROL, AND RESIDUAL CONTROL OF INVASIVE PLANTS” (priority 2017, published 2018):

Experiments:
[1] = average; cited from earlier work
[2] = pH 7; cited from earlier work
[3] = system: Musk thistle (Carduus nutans); experiment: Greenhouse pre-emergence dose-response bioassay (GR50); format: in vivo; settings: pre-emergence
Text: (§1) A greenhouse experiment was designed to determine if the extended control of Dalmatian toadflax and downy brome provided by indaziflam in the field was due to increased residual seedling control. This experiment was designed to compare indaziflam's pre-emergence efficacy to the currently recommended herbicides (aminocyclopyrachlor and aminopyralid) for annual, biennial, and perennial weed control in non-crop areas. […] This allows for direct comparisons between herbicides on an active ingredient basis for aminopyralid, aminocyclopyrachlor, and indaziflam.
(§2) For the greenhouse bioassay, seeds were planted at a constant depth of 0.5 cm in 13- by 9- by 6-cm plastic containers, filled with an Otero sandy clay loam field soil (Coarse-loamy, mixed (calcareous), mesic Aridic Ustorthents) with 3.9% OM and pH 7.7. Seeding densities were adjusted based on germinability to reach a target density of 40 plants/pot. Plants were maintained in a greenhouse with a 25/20° C. day/night temperature with natural light supplemented with high-intensity discharge lamps to give a 15-h photoperiod. Plants were sub-irrigated as needed and misted overhead daily to reduce soil crusting.
(§3) The greenhouse experiment was a completely randomized design with a factorial of seven herbicide rates and a non-treated control with three replicates per treatment. The experiments were conducted at two different times. A preliminary greenhouse study was conducted for each herbicide and species to determine a range of doses that would best fit a logistic regression. It is not unusual for both pre-emergence and post-emergence herbicides to provide control at lower than labeled rates, e.g., 0.5-560 g ai ha^−1 (aminocyclopyrachlor), 0.9-224 g ai ha^−1 (aminopyralid), and 0.05-11.7 g ai ha^−1 (indaziflam) in the greenhouse with ideal environmental conditions, so it was not surprising that herbicide doses for the regression analysis were much lower than recommended field use rates. Herbicides were applied pre-emergence using a Generation III research track sprayer (DeVries Manufacturing, Hollandale, Minn.) equipped with a TeeJet 8002 EVS flat-fan spray nozzle (TeeJet Spraying Systems Co., Wheaton, Ill.) at 187 L·ha-1 at 172 kPa.
(§4) Plants were harvested at the soil surface approximately 4 to 5 week-after-treatment (WAT) depending on the growth stage of each species. Weights were recorded after samples were dried for 5 days at 60° C. Percent dry weight reduction was calculated relative to the non-treated control plants for each treatment.
(§5) Data from the greenhouse dose-response experiment were first analyzed using the PROC MIXED method in SAS 9.3 with treatment as a fixed effect and experiment and replicate as random effects (SAS Institute 2010). Based on a non-significant homogeneity of variance (ANOVA) and experiment-by-herbicide rate interaction, results from the repeated experiments were pooled. The treatment effect was significant, therefore, nonlinear regression in Graphpad Prism 7.00 (GraphPad Software, La Jolla Calif. USA) was used to describe the response of the nine weed species to aminocyclopyrachlor, aminopyralid, and indaziflam. The herbicide concentrations resulting in 50% reduction in plant biomass (GR50) compared to the non-treated control were determined for each invasive weed species using four-parameter log-logistic regression. The equation used to regress herbicide concentration with percent reduction in plant dry biomass as compared to the non-treated control was:
(§6) where C and D represent the lower and upper limits of the dose-response curve, respectively, and b represents the slope of the best-fitting curve through the GR50 value. For curve fitting and GR50 estimation, the model was constrained to a maximum of 100 and minimum of 0. Mean separation of herbicide GR50 values were analyzed by Fisher's Protected LSD test at the 5% level of probability. […]

[4] = system: downy brome (Bromus tectorum); experiment: as above; format: in vivo; settings: pre-emergence
Text: as §1, §2, §3, §4, §5, §6

[5] = system: Marestail (Conyza Canadensis); experiment: as above; format: in vivo; settings: pre-emergence
Text: as §1, §2, §3, §4, §5, §6

[6] = system: Curly dock (Rumex crispus); experiment: as above; format: in vivo; settings: pre-emergence
Text: as §1, §2, §3, §4, §5, §6

[7] = system: Common mullein (Verbascum thapsus); experiment: as above; format: in vivo; settings: pre-emergence
Text: as §1, §2, §3, §4, §5, §6

[8] = system: Diffuse knapweed (Centaurea diffusa); experiment: as above; format: in vivo; settings: pre-emergence
Text: as §1, §2, §3, §4, §5, §6

[9] = system: Dalmatian toadflax (Linaria dalmatica); experiment: as above; format: in vivo; settings: pre-emergence
Text: as §1, §2, §3, §4, §5, §6

[10] = system: Common teasel (Dipsacus fullonum); experiment: as above; format: in vivo; settings: for GR50 (herbicide dose resulting in 50% dry biomass reduction): pre-emergence
Text: as §1, §2, §3, §4, §5, §6

[11] = system: Halogeton (Halogeton glomeratus); experiment: as above; format: in vivo; settings: pre-emergence
Text: as §1, §2, §3, §4, §5, §6

[12] = system: Dalmatian toadflax (Linaria dalmatica); experiment: Herbicide efficacy field trial, visual percent control of Dalmatian toadflax; format: in vivo; settings: 4 YAT
Procedure: The present inventors conducted a field trial to evaluate the effectiveness of herbicides for long-term downy brome and Dalmatian toadflax control. The experiment was conducted at one site. The results provide the framework for the subsequent greenhouse experiment. (See below). The field experiment was located in Longmont, Colo. (lat 40° 14′57.53″N, long 105° 12′35.46″W) on Rabbit Mountain Open Space, the easternmost point of the foothills in Boulder County. The canopy cover of actively growing downy brome and Dalmatian toadflax at peak standing crop was approximately 85% and 30%, respectively. Before herbicide application (June and August), perennial grasses (<10% canopy cover) included primarily western wheatgrass (Pascopyrum smithii (Rydb.) A. Love), and native forbs and sub-shrubs (˜20% canopy cover) included Louisiana sage (Artemisia ludoviciana Nutt.), fringed sage (Artemisia frigida Willd.), common sunflower (Helianthus annuus L.), sulphur-flower buckwheat (Eriogonum umbellatum Torr.), and hairy goldenaster (Heterotheca villosa (Pursh) Shinners). The soil at the study site was Baller sandy loam (loamy-skeletal, mixed, superactive, mesic Lithic Haplustolls), with 1.5% organic matter in the top 20 cm. The average elevation was 1,725 m (5,660 ft). Mean annual precipitation based on the 30-yr average was 363 mm and the mean annual temperature was 9.1° C. […]. A statewide-drought occurred and average total precipitation decreased 134 mm; however, the site received an additional 110 mm above the 30-yr average.
Herbicides were applied in the summer at two application timings; June, when Dalmatian toadflax was in the flowering growth stage, and August, during Dalmatian toadflax regrowth. These two application timings (June and August) were both before downy brome emergence (PRE). The 13 herbicide treatments (including a non-treated control) were applied to 3 by 9 m plots arranged in a randomized complete block design with four replications, and are listed in Table 1. […]
(§7) For the herbicide efficacy field experiment, repeated measures analysis of variance (ANOVA) was used to determine the effects of herbicide treatments on long-term Dalmatian toadflax and downy brome control. Percent control data were first analyzed in SAS 9.3 using Proc MIXED, with year after treatment defined as the repeated measure (SAS Institute 2010). […] Dalmatian toadflax and downy brome control response variables were analyzed separately, and main effects and interactions were tested at the α=0.05 significance level. […] To determine herbicide impacts on residual Dalmatian toadflax and downy brome control, the significant treatment-by-year interaction was evaluated using the Proc GLIMMIX method and the LINES statement. […]

[13] = system: invasive winter annual grass (downy brome, feral rye, Japanese brome); experiment: Invasive winter annual grass field efficacy studies, biomass as percent of non-treated (Sites 1 and 2 combined); format: in vivo, Bromus tectorum, Secale cereale, Bromus japonicus; settings: 1 YAT, EPRE timing, imazapic 123 g·ai·ha^−1
Procedure: In year 1, field experiments were conducted to compare the effectiveness of indaziflam and imazapic for long-term invasive winter annual grass control, and to evaluate the response of the native plant communities. The experiments were established at two sites on the Colorado Front Range dominated by invasive winter annual grasses. Site 1 (lat 40° 15′2″N, long 105° 12′56″W) was infested with equal amounts of downy brome and Japanese brome. Site 2 (lat 40° 43′23″N, long 104° 55′58″W) was infested with feral rye. These two sites were approximately 58 km apart. Site 1 was located on Rabbit Mountain Open Space (Boulder County). Site 2 was located on a Colorado Parks and Wildlife Area (Larimer County). Before herbicide application in July, visual estimates were made across the entire study area of percentage of living canopy cover for all species present at both sites.
Site 1 was characterized by ˜80-100% downy brome and Japanese brome canopy cover with a dense fine-fuel layer, e.g., thatch, (2 to 5 cm), and a scattered stand of co-occurring species (˜0-10% canopy cover, Table 4). […]
Biomass harvests and species richness evaluations were conducted in August (year 2 and year 3) to evaluate invasive winter annual grass control and response of co-occurring species. […] Additionally, at Site 1, species richness was calculated for each treatment as a simple estimate of biological diversity. […]

[14] = system: downy brome (Bromus tectorum); experiment: Herbicide efficacy field trial, visual percent control of downy brome; format: in vivo; settings: 4 YAT
Procedure: The present inventors conducted a field trial to evaluate the effectiveness of herbicides for long-term downy brome and Dalmatian toadflax control. The experiment was conducted at one site. The results provide the framework for the subsequent greenhouse experiment. (See below). The field experiment was located in Longmont, Colo. (lat 40° 14′57.53″N, long 105° 12′35.46″W) on Rabbit Mountain Open Space, the easternmost point of the foothills in Boulder County. The canopy cover of actively growing downy brome and Dalmatian toadflax at peak standing crop was approximately 85% and 30%, respectively. […]
as §7

Nc1nc(C2CC2)nc(C(=O)[O-])c1Cl.[K+] [Aminocyclopyrachlor, aminocyclopyrachlor]
water solubility [1]: 4,200 mg L-1
Log Kow [2]: −2.48
GR50 (herbicide dose resulting in 50% dry biomass reduction) [3]: 1.25 b g ai ha^−1
GR50 (herbicide dose resulting in 50% dry biomass reduction) [4]: 56.4 b g ai ha^−1
GR50 (herbicide dose resulting in 50% dry biomass reduction) [5]: 2.09 c g ai ha^−1
GR50 (herbicide dose resulting in 50% dry biomass reduction) [6]: 21.3 b g ai ha^−1
GR50 (herbicide dose resulting in 50% dry biomass reduction) [7]: 3.05 b g ai ha^−1
GR50 (herbicide dose resulting in 50% dry biomass reduction) [8]: 6.20 c g ai ha^−1
GR50 (herbicide dose resulting in 50% dry biomass reduction) [9]: 1.16 b g ai ha^−1
GR50 (herbicide dose resulting in 50% dry biomass reduction) [10]: 6.89 c g ai ha^−1
GR50 (herbicide dose resulting in 50% dry biomass reduction) [11]: 1.04 b g ai ha^−1
Dalmatian toadflax control ([12]; August application timing): 55%
Dalmatian toadflax control ([12]; June application timing): 50%

Nc1cc(Cl)nc(C(=O)O)c1Cl [Aminopyralid, aminopyralid]
water solubility [1]: 207,000 mg L-1
Log Kow [2]: −2.87
GR50 (herbicide dose resulting in 50% dry biomass reduction) [3]: 0.31 a g ai ha^−1
GR50 (herbicide dose resulting in 50% dry biomass reduction) [4]: 38.5 b g ai ha^−1
GR50 (herbicide dose resulting in 50% dry biomass reduction) [5]: 0.80 b g ai ha^−1
GR50 (herbicide dose resulting in 50% dry biomass reduction) [6]: 1.25 a g ai ha^−1
GR50 (herbicide dose resulting in 50% dry biomass reduction) [7]: 7.45 c g ai ha^−1
GR50 (herbicide dose resulting in 50% dry biomass reduction) [8]: 2.50 b g ai ha^−1
GR50 (herbicide dose resulting in 50% dry biomass reduction) [9]: 14.8 c g ai ha^−1
times more active (lower GR50) compared to aminocyclopyrachlor [10]: 9
times more active (lower GR50) compared to indaziflam [10]: 2
GR50 (herbicide dose resulting in 50% dry biomass reduction) [10]: 0.75 a g ai ha^−1
GR50 (herbicide dose resulting in 50% dry biomass reduction) [11]: 3.11 c g ai ha^−1

Cc1cnc(C2=NC(=O)C(C)(C(C)C)N2)c(C(=O)O)c1 (stereo not drawn) [Imazapic, imazapic]
invasive winter annual grass control [13]: ~41%
residual downy brome control [14]: less than 25%
Log Kow [2]: 0.01

Nc1c(Cl)c(Cl)nc(C(=O)O)c1Cl [Picloram, picloram]
water solubility [1]: 200,000 mg L-1
Log Kow [2]: 1.18
Dalmatian toadflax control ([12]; August application timing): 64%
Dalmatian toadflax control ([12]; June application timing): 68%
